Like-named read-outs stand apart in the source and are kept apart here.

This test has as its system IRF-Lucia luciferase reporter (ISRE) in J774-Dual cells. Nature of the test: J774-Dual IRF-Lucia luciferase reporter assay (ISRE activation). The settings on record: for EC50: Mus musculus. It counts as cell-based, mouse. The procedure, abridged:
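Eight-point dose-response in J774-Dual mouse macrophage-like cells gave EC50, plus CC50 by in-plate CellTiter-Glo, and ISRE:NF-κB ratios. Cells plated 24 h at 37 °C, 5% CO2 without differentiation; supernatant Lucia luciferase and SEAP measured with QUANTI-Luc and QUANTI-Blue.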

Where [1] appears, read: J774, Mouse Reporter Cell Line, 8-point dose response, read-out: J774 IRF EC50.
The mark [2] stands for this setting: Mouse Reporter Cell Line J774, at peak.
Where [3] appears, read: J774, Mouse Reporter Cell Line J774, read-out: J774 IRF EC50.

In general, EC50 refers to the concentration at which the effect is half-maximal. Regarding `Cc1ccc2c(=O)c3cccc(CC(=O)O)c3oc2c1C` [DMXAA, 5,6-dimethylxanthenone-4-acetic acid], the 50% effective concentration (EC50) (J774-Dual control compound, read-out: EC50 ISRE activation) is 24 µM. Consider `O=C(Nc1ccc(N2CCN(C(=O)c3cccs3)CC2)cc1)c1ccc(Cl)c2ccccc12` [NA13], for which the “J774 IRF % activation at peak” value (Mouse Reporter Cell Line) worked out at 3.434%. Also, the EC50 under setting [1] worked out at 0.821 µM. In the same order, the values of `CCOc1cccc(COc2ccc(C(=O)Nc3ccc(N4CCN(C(=O)c5cccs5)CC4)cc3)cc2)c1` [NA42, 4-((3-ethoxybenzyl)oxy)-N-(4-(4-(thiophene-2-carbonyl)piperazin-1-yl)phenyl)benzamide] are 191.2% and 3.9 µM. For `O=C(Nc1ccc(N2CCN(C(=O)c3ccsc3)CC2)cc1)c1ccc(OCc2ccccc2)nc1` [NA-1], the “J774 IRF % activation at peak” value (Mouse Reporter Cell Line) is reported as 67.54%. Further, the 50% effective concentration (EC50) under setting [1] is around 3.06 µM. On the same counts, the results for `O=C(Nc1ccc(N2CCN(C(=O)c3cccs3)CC2)cc1)c1ccc(Br)cc1` [NA-14] are 4.471% and 5.23 µM. In the same order, the values of `O=C(Nc1ccc(N2CCN(C(=O)c3cccs3)CC2)cc1)c1sc2cc(Cl)ccc2c1Cl` [NA-20] are 29.98% and 4.19 µM.

On to `O=C(Nc1ccc(N2CCN(C(=O)c3cccs3)CC2)cc1)c1cccc2c(Br)cccc12` [NA-21, 5-bromo-N-{4-[4-(2-thienylcarbonyl)-1-piperazinyl]phenyl}-1-naphthamide], for which the “J774 IRF % activation at peak” value (Mouse Reporter Cell Line) is recorded as 38.86%. In addition, the half-maximal effective concentration (EC50) under setting [1] turned out to be 1.01 µM.

For the compound `COc1cccc(COc2ccc(C(=O)Nc3ccc(N4CCN(C(=O)c5cccs5)CC4)cc3)cc2)c1` [NA-24, 4-((3-methoxybenzyl)oxy)-N-(4-(4-(thiophene-2-carbonyl)piperazin-1-yl)phenyl)benzamide], the “J774 IRF % activation at peak” value (Mouse Reporter Cell Line) came out at 111.2%. For the same compound, the concentration for a half-maximal effect (EC50) under setting [1] was 4.67 µM. On the same counts, the results for `Cc1ccc(COc2ccc(C(=O)Nc3ccc(N4CCN(C(=O)c5cccs5)CC4)cc3)cc2)cc1` [NA-25] are 18.01% and 4.38 µM.

For the compound `CCOc1ccc(C(=O)Nc2ccc(N3CCN(C(=O)c4cccs4)CC3)cc2)cc1Br` [NA-30], the “J774 IRF % activation at peak” value (Mouse Reporter Cell Line) stood at 2.95%. Moreover, under setting [1], the EC50 was around 3.33 µM. In the same order, the values of `O=C(Nc1ccc(N2CCN(C(=O)c3cccs3)CC2)cc1)c1ccc(-c2cc3ccccc3oc2=O)cc1` [NA-32] are 77.58% and 11.9 µM. In the same order, the values of `O=C(Nc1ccc(N2CCN(C(=O)c3cccs3)CC2)cc1)c1ccc(OCc2cccc(Cl)c2)cc1` [NA-33] are 15.46% and 2.64 µM. On the same counts, the results for `O=C(Nc1ccc(N2CCN(C(=O)c3cccs3)CC2)cc1)c1ccc(-c2ccncc2)cc1` [NA-38] are 2.98% and around 10.2 µM. `O=C(Nc1ccc(N2CCN(C(=O)c3cccs3)CC2)cc1)c1ccc(-c2ccccc2)cn1` [NA-39]: the “J774 IRF % activation at peak” value (Mouse Reporter Cell Line) stood at 77.89%. Besides, the 50% effective concentration (EC50) under setting [1] is 9.81 µM. On the same counts, the results for `O=C(Nc1ccc(N2CCN(C(=O)c3cccs3)CC2)cc1)c1ccc(-c2ccccc2)nc1` [NA-41] are 37.71% and 10.6 µM. In the same order, the values of `COc1ccc(C(=O)Nc2ccc(OCc3ccccc3)cc2)cc1[N+](=O)[O-]` [NA-44] are 2.085% and 7.38 µM. Turning to `O=C(Nc1ccc(N2CCN(C(=O)c3cccs3)CC2)cc1)c1ccc(OCc2ccccc2)nc1` [NA-59], the “J774 IRF % activation at peak” value (Mouse Reporter Cell Line) was 150.5%. Moreover, under setting [1], the EC50 came to 3.09 µM. On to `Cc1ccc(NC(=O)c2cc(NC(=O)c3ccccc3)ccc2N2CCOCC2)cc1Cl` [NB-1], for which the “J774 IRF % activation at peak” value under setting [2] came to 54.52%. For the same compound, the half-maximal effective concentration (EC50) under setting [3] is 6.57 µM. For the compound `Cc1ccc(NC(=O)c2cc(NC(=O)Cc3ccccc3)ccc2N2CCOCC2)cc1Cl` [NB-3], the “J774 IRF % activation at peak” value under setting [2] is listed as 2.603%. In addition, the EC50 under setting [3] was found to be 8.54 µM. On the same counts, the results for `Cc1ccc(NC(=O)c2cc(NC(=O)c3cccs3)ccc2N2CCOCC2)cc1Cl` [NB-8] are 52.86% and 5.67 µM.

Values taken from patent US20220395500A1, “SMALL MOLECULE ACTIVATORS OF INTERFERON REGULATORY FACTOR 3 AND METHODS OF USE THEREOF” (Neuralexo, Inc., priority 2020, published 2022).
